{"source": "patent US7420060B2", "about": "“Benzopyran derivatives substituted with a thioxobenzoxazole derivative, pharmaceutically acceptable salts thereof, their preparations and pharmaceutical compositions containing them” (Schaeffler KG, priority 2003, dated 2008)", "key": {"[1]": {"test_system": "ischemic heart isolated from white rat", "assay": "Cardioprotective effect on isolated ischemic rat heart (Langendorff, 30 min global ischemia / 30 min reperfusion)", "conditions": "10 μM", "experimental": "100 mg/kg of sodium pentobarbital was injected in abdominal cavity of white male rats (300˜450 g, obtained form the experimental animal team of the Korea Research Institute of Chemical Technology) to anesthetize them. Then, an intravenous injection of 1000 U/kg of heparin was performed before taking out heart. Particularly, cannula(PE 240) was inserted in the trachea, and artificial respiration was tried upon the rat by using a rodent ventilator. Under that condition, aortic cannula was inserted in the aorta and heart was taken out under retrograde perfusion. The extracted heart was hung on Langendorff apparatus quickly and unnecessary tissues on heart were removed. Perfusion was induced under static pressure (85 mmHg) with 37° C. modified Krebs-Henseleit bicarbonate buffer (composition <mM/L>: 116 NaCl, 4.7 KCl, 1.1 MgSO4, 1.17 KH2PO4, 24.9 NaHCO3, 2.52 CaCl2, 8.32 Glucose, 2.0 Pyruvate) saturated with 95% O2/5% CO2. A metal cannula, to which a latex balloon filled with an ethanol-distilled water mixture (1:1 vol/vol) was linked, was inserted in left ventricle through pulmonary vein. Then, left ventricular pressure transmitted through the balloon was transduced by using pressure transducer, and amplified by using Plugsys bridge amplifier isovolumetrically. Then, the pressure was recorded in a recorder (Linearcorder mark 8 WR 3500). Thereafter, heart was stabilized for 15 minutes. Then, left ventricular end diastolic pressure (LVEDP) was given by 5 mmHg and such volume of the balloon was kept all through the experiments.\nBaseline cardiac contractile function, heart rate (HR), and coronary flow (CF) were measured. Cardiac contractile function was calculated by […], yielding LVDP (left ventricular developed pressure). Double product RPP (rate-pressure product)(DP), another important parameter for indirectly assessing cardiac performance in Langendorff heart, whose cardiac output could not be measured ordinarily, was calculated by multiplying HR by LVDP. Throughout the experiment, total coronary blood flow was measured by the use of coronary flow probe (diameter: 1.0 mm) installed in aortic cannula with electromagnetic flowmeter. Temperature of heart was steadily maintained by immersing the heart at 37° C. in physiological saline solution to which 95% O2/5% CO2 was constantly supplied. After stabilization for 15 min, the hearts were pre-treated for 10 min with vehicle (0.04% DMSO) only or a compound of the present invention or the control material in the vehicle. Thereafter, cardiac contractile function, HR and CF were repeatedly measured. Global ischemia was induced by completely shutting off the perfusate for 30 min. Severity of ischemia was determined as the time to contracture (TTC, min) during global ischemia in which the first 5 mmHg increase in EDP was observed. Then, the hearts were reperfused and, 30 min later, contractile functions (LVDP, HR and CF) were repeatedly measured. After reperfusion was accomplished for 30 min, LDH (lactate dehydrogenase) was measured with a kit as a sensitive index for loss of cell viability."}, "[2]": {"test_system": "ischemic myocardial injury models prepared from white rats", "assay": "Antiischemic activity in the anesthetized rat ischemic myocardial injury model (coronary occlusion 45 min / reperfusion 90 min)", "type": "in vivo", "conditions": "0.3 mg/kg, intravenous (femoral vein), 30 min before occlusion", "experimental": "75 mg/kg of sodium pentobarbital was injected in abdominal cavity of white male rats (350-450 g, Laboratory Animal Division, Korea Research Institute of Chemical Technology) to anesthetize them. After performing tracheotomy, artificial respiration was induced by 10 ml/kg of stroke volume and 60/min. of heart rate. Cannula was inserted in each of vena fermoralis and aorta fermoralis, through which medicines were administered and blood pressure was measured. In the meantime, since body temperature in a ischemic myocardial injury model was very important factor, directly influencing a result, the temperature of a rat was always kept at 37° C. by using a probe for measuring body temperature inserted in rectum and homeothermic blanket control unit. Mean arterial blood pressure and heart rate (HR) of the rat were measured all through the experiments. Statham P23XL pressure transducer (Grass Ins., MA., USA) was used for measuring blood pressure and ECG/RATE Coupler (Hugo Sachs Electronic, Germany) was used for measuring HR. In addition, all the changes were recorded successively by graphtec linearcorder chart recorder (Graphtec Linearcorder WR 3310, Hugo Sachs Electronic).\nAccording to the method of Selye H, left coronary aorta was occluded as follows. Left thoracotomy was induced. That is, the chest of a rat was a little opened. The right chest of the anesthetized rat was pressurized by the middle finger of left hand, so that the heart was pushed out. The heart was fixed gently by the thumb and the index finger of the left hand. A stitch was carefully put on a part including left anterior descending coronary artery by a suture needle with operating thread (5-0 silk ligature), and the heart was quickly positioned again in thoracic cavity. Then, both ends of operating thread were exposed outside. Both ends of operating thread were passed through PE tube (PE100, 2.5 cm) and left for 20 minutes for stabilization. A vehicle or a medicine was administered through the cannula inserted in femoral vein, which was left for 30 minutes in order for the medicine to work thoroughly. BMS-180448 was used for a control group and the dosage of each test medicine and a control medicine was 0.3 mg/kg each. […]\nThe coronary artery was reoccluded according to the above method and 2 ml of 1% Evans blue solution was administered by intravenous injection. […] The surface of each slice was inputted in a computer by using Hi-scope, a compact micro vision system, and Image pro plus program, from which both normal blood flow tissue area stained by blue and non-stained area on each slice were measured. The ratio of non-stained area to the gross area of each slice was calculated, by which the weight of each slice was multiplied to calculate AAR (area at risk) of each slice. […]"}}, "data": [{"molecule": "COc1ccc2oc(=S)n([C@H]3c4cc([N+](=O)[O-])ccc4O[C@@](C)(C(OC)OC)[C@@H]3O)c2c1", "note": "[Example 10, (2R,3R,4S)-6-nitro-3,4-dihydro-3-hydroxy-2-dimethoxymethyl-2-methyl-4-(5-methoxy-2-thioxobenzoxazol-3-yl)-2H-1-benzopyran]", "values": [{"measurement": "LDH (concentration of lactate dehydogenase)", "setting": "[1]; after 30 min reperfusion", "result": 17.3, "unit": "unit/g"}, {"measurement": "EDP (left ventricular end diastolic pressure)", "setting": "[1]; after reperfusion, baseline set at 5 mmHg", "result": 36.7, "unit": "mmHg"}, {"measurement": "TTC (time to induce contraction / time to contracture)", "setting": "[1]; during 30 min global ischemia, first 5 mmHg increase in EDP", "result": 24.4, "unit": "min"}, {"measurement": "LVDP × HR (left ventricular developed pressure × heart rate)", "setting": "[1]; reperfusion DP as % of pre-treatment DP, 30 min after reperfusion", "result": 54.2, "unit": "%"}, {"measurement": "IZ/AAR(%) myocardial infarction size to area at risk", "setting": "[2]", "result": 46.6, "unit": "%"}]}]}
